For series [1] the following is noted: as disclosed in WO 2005/023192; cited from earlier work.
The nature of series [2]: aqueous solubility of lenalidomide crystalline forms. To be noted: forms prepared and tested by the inventors.
For series [3] the following is noted: as indicated in WO 2005/023192; cited from earlier work.

Structures are written as SMILES. Read-outs that look alike come from different tables or passages of the source.

The source of these data is patent US20110263649A1, “CRYSTALLINE FORM OF LENALIDOMIDE AND A PROCESS FOR ITS PREPARATION” (GENERICS [UK] LIMITED, priority 2008, published 2011).

In the case of `Nc1cccc2c1CN(C1CCC(=O)NC1=O)C2=O` (stereo not shown) [form E, lenalidomide], the “weight loss upon storage” value in series [1] is listed as “the greatest weight loss upon storage”.
In the case of `Nc1cccc2c1CN(C1CCC(=O)NC1=O)C2=O` (stereo not shown) [novel crystalline form, 3-(4-amino-1-oxo-1,3-dihydro-isoindol-2-yl)-piperidine-2,6-dione], in series [2], the aqueous solubility result was “High solubility in aqueous medium”.
On to `Nc1cccc2c1CN(C1CCC(=O)NC1=O)C2=O` (stereo not shown) [polymorphic mixture, lenalidomide], for which the aqueous solubility result in series [3] is listed as “poorly soluble in water”; in series [2] it was “poor aqueous solubility”.
